# Laboratory results published in PubChem BioAssay (NCI).
# “And” between values parts separate entries of the source, which are not always exact repeats. Equal values may be shown once.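 1) Cells in 96-well plates. 2) Compound, 48 h, 5 concentrations. 3) Linear interpolation between surrounding doses. 4) Unreached endpoint = highest concentration. GI50 is the concentration that inhibits growth by half. TGI denotes the concentration required for complete inhibition of growth.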
# How the values were obtained:
# Test in all cases: NCI tumour cell line growth inhibition, 48 h
# A498 renal = system: A498 renal
# DU-145 prostate = system: DU-145 prostate
# HCT-15 colon = system: HCT-15 colon
# HT29 colon = system: HT29 colon
# IGROV1 ovarian = system: IGROV1 ovarian
# MOLT-4 leukemia = system: MOLT-4 leukemia
# NCI-H460 lung = system: NCI-H460 lung
# SF-295 CNS = system: SF-295 CNS
# SK-MEL-2 melanoma = system: SK-MEL-2 melanoma
# SW-620 colon = system: SW-620 colon
SMILES,GI50 (A498 renal),TGI (A498 renal),GI50 (DU-145 prostate),TGI (DU-145 prostate),GI50 (HCT-15 colon),TGI (HCT-15 colon),GI50 (HT29 colon),TGI (HT29 colon),GI50 (IGROV1 ovarian),TGI (IGROV1 ovarian),GI50 (MOLT-4 leukemia),TGI (MOLT-4 leukemia),GI50 (NCI-H460 lung),TGI (NCI-H460 lung),GI50 (SF-295 CNS),TGI (SF-295 CNS),GI50 (SK-MEL-2 melanoma),TGI (SK-MEL-2 melanoma),GI50 (SW-620 colon),TGI (SW-620 colon)
NC(=O)c1ccc(-c2nc(-c3ccc4c(c3)OCO4)c(-c3ccccn3)[nH]2)cc1,> 25 µM and 27.2 µM,> 79.3 µM,> 25 µM and 38.7 µM,> 100 µM,> 25 µM and 23 µM,> 25 µM and 63.6 µM,> 25 µM and 28.3 µM,> 93.8 µM,> 25 µM and 34.2 µM,> 100 µM,> 25 µM and 38.8 µM,> 100 µM,> 25 µM and 23.3 µM,> 84.7 µM,> 25 µM and 24.9 µM,> 25 µM and 79.1 µM,> 25 µM and 35.8 µM,> 100 µM,> 25 µM and 65.6 µM,> 100 µM
COC(=N)c1c(N)[n+]([O-])c2ccc(F)cc2[n+]1[O-],40.4 µM,> 100 µM,> 100 µM,> 100 µM,> 100 µM,> 100 µM,> 100 µM,> 100 µM,18.1 µM,86.5 µM,> 100 µM,> 100 µM,58.1 µM,> 100 µM,> 100 µM,> 100 µM,> 100 µM,> 100 µM,> 100 µM,> 100 µM
